Assay results from patent US20100173990A1, “Transglutaminase Inhibitor Comprising Chlorogenic Acid And A Method For Producing Thereof” (priority 2007, published 2010).
pIC50: −log10 of the molar value.

Target: T1, Transglutaminase 2 (Cavia cutleri, UniProt P08587)
T1 construct: purchased Sigma-Aldrich T5398
T1 sequence (P08587 1-690): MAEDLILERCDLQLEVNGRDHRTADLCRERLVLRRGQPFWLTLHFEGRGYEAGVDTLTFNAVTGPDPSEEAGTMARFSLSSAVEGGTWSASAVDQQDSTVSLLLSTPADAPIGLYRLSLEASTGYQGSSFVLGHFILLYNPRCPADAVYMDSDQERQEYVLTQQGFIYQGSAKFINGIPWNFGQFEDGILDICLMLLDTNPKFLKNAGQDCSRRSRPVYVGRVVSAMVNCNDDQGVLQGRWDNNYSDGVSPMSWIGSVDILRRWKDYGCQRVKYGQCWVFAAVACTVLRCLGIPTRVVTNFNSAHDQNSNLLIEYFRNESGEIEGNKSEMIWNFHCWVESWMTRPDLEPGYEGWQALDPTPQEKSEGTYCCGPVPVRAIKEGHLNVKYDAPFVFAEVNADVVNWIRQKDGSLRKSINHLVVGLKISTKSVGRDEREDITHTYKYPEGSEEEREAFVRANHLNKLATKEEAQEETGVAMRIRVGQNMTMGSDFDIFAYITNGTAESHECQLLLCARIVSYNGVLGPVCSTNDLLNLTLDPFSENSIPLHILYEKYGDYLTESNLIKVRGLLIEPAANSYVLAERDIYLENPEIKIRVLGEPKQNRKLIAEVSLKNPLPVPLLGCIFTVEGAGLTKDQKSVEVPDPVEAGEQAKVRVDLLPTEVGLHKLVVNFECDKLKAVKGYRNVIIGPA
Assay: In vitro assay for inhibition of transglutaminase activity ([1,4-14C] putrescine incorporation into succinylated casein)
Type: biochemical
Conditions: for activity of transglutaminase relative to DMSO-control, Assay 1 / activity of transglutaminase relative to DMSO-control, Assay 2 / activity of transglutaminase relative to DMSO-control, Assay 3 / activity of transglutaminase relative to DMSO-control, Mean: control = 1.0000; for activity of transglutaminase relative to DMSO-control, Mean: mean of three assays
Method: To measure the inhibitory activity of chlorogenic acid which competes with putrescine, the transglutaminase-catalyzed reaction between [1,4,-^14C] putrescine and succinylated casein were observed.
Succinylated casein was purchased from Calbiochem (Cat. No. 573464), and 1 g of the powder was dissolved in 50 ml of a reaction buffer solution containing 5 mM DTT (0.1 M Tris-acetate (pH 8.0), 10 mM CaCl, 0.15 M NaCl, 1.0 mM EDTA). This solution was stored in a deep freezer for further use. [1,4-^14C] Putrescine dihydrochloride was purchased from GE Healthcare (Cat. No. CFA301), and the stock solution was diluted with distilled water to yield a radiological dose of 5 μCi/ml. Transglutaminase 2 was purchased from Sigma-Aldrich (Cat. No. T5398), and diluted with distilled water to yield a final concentration of 1 unit/ml. Chlorogenic acid (Sigma-Aldrich, Cat No. C3878) was dissolved in DMSO at a concentration of 10 mM to prepare its stock solution, and the stock solution was diluted with DMSO to prepare solutions having various concentrations.
450 μl of succinylated casein solution and 50 μl of [1,4-^14C] putrescine dihydrochloride solution were mixed together to prepare a substrate solution. 96 μl of the reaction buffer, 3 μl of the stock solution of chlorogenic acid, and 1 μl of the stock solution of transglutaminase were mixed together to prepare each sample, followed by incubation at 37° C. for 10 min. 500 μl of the substrate solution and 100 μl of sample solution were mixed well, and the mixture was incubated at 37° C. for 2 hrs, before termination with 4.5 ml of cold (4° C.) 7.5% TCA. The final solution was stored at 4° C. for 1 hr. The TCA-precipitates were filtered through a GF/glass fiber filter, washed with 25 ml of cold 5% TCA, and dried. Radioactivity of crosslinked protein was measured using a β-counter (Beckman Coulter), and compensated by the activity of DMSO-control group as a standard. The activity of transglutaminase was represented by the measured values.

With `O=C(/C=C/c1ccc(O)c(O)c1)O[C@@H]1C[C@](O)(C(=O)O)C[C@@H](O)[C@H]1O` [chlorogenic acid, 3-[[3-(3,4-dihydroxyphenyl)-1-oxo-2-propenyl]oxy]-1,4,5-trihydroxycyclohexanecarboxylic acid] the “activity of transglutaminase relative to DMSO-control, Assay 1” value (0.5 μM chlorogenic acid) was 0.9450, the “activity of transglutaminase relative to DMSO-control, Assay 2” value (0.5 μM chlorogenic acid) was 0.8658 and the “activity of transglutaminase relative to DMSO-control, Assay 3” value (0.5 μM chlorogenic acid) was 0.9028. For the same compound, the “activity of transglutaminase relative to DMSO-control, Mean” value (0.5 μM chlorogenic acid) was 0.9045, the “activity of transglutaminase relative to DMSO-control, Assay 1” value (1.0 μM chlorogenic acid) was 0.8294 and the “activity of transglutaminase relative to DMSO-control, Assay 2” value (1.0 μM chlorogenic acid) was 0.7454. For the same compound, the “activity of transglutaminase relative to DMSO-control, Assay 3” value (1.0 μM chlorogenic acid) was 0.5411, the “activity of transglutaminase relative to DMSO-control, Mean” value (1.0 μM chlorogenic acid) was 0.7053 and the “activity of transglutaminase relative to DMSO-control, Assay 1” value (2.0 μM chlorogenic acid) was 0.4526. The “activity of transglutaminase relative to DMSO-control, Assay 2” value (2.0 μM chlorogenic acid) was 0.5111, the “activity of transglutaminase relative to DMSO-control, Assay 3” value (2.0 μM chlorogenic acid) was 0.3081 and the “activity of transglutaminase relative to DMSO-control, Mean” value (2.0 μM chlorogenic acid) was 0.4240. The “activity of transglutaminase relative to DMSO-control, Assay 1” value (3.0 μM chlorogenic acid) was 0.2041, the “activity of transglutaminase relative to DMSO-control, Assay 2” value (3.0 μM chlorogenic acid) was 0.1523 and the “activity of transglutaminase relative to DMSO-control, Assay 3” value (3.0 μM chlorogenic acid) was 0.1209. The “activity of transglutaminase relative to DMSO-control, Mean” value (3.0 μM chlorogenic acid) was 0.1591, the “activity of transglutaminase relative to DMSO-control, Assay 1” value (5.0 μM chlorogenic acid) was 0.1094 and the “activity of transglutaminase relative to DMSO-control, Assay 2” value (5.0 μM chlorogenic acid) was 0.1009. For the same compound, the “activity of transglutaminase relative to DMSO-control, Assay 3” value (5.0 μM chlorogenic acid) was 0.0797, the “activity of transglutaminase relative to DMSO-control, Mean” value (5.0 μM chlorogenic acid) was 0.0966 and the “activity of transglutaminase relative to DMSO-control, Assay 1” value (10.0 μM chlorogenic acid) was 0.0713. For the same compound, the “activity of transglutaminase relative to DMSO-control, Assay 2” value (10.0 μM chlorogenic acid) was 0.0876, the “activity of transglutaminase relative to DMSO-control, Assay 3” value (10.0 μM chlorogenic acid) was 0.0754 and the “activity of transglutaminase relative to DMSO-control, Mean” value (10.0 μM chlorogenic acid) was 0.0781. The “activity of transglutaminase relative to DMSO-control, Assay 1” value (50.0 μM chlorogenic acid) was 0.0711, the “activity of transglutaminase relative to DMSO-control, Assay 2” value (50.0 μM chlorogenic acid) was 0.0808 and the “activity of transglutaminase relative to DMSO-control, Assay 3” value (50.0 μM chlorogenic acid) was 0.0703. For the same compound, the “activity of transglutaminase relative to DMSO-control, Mean” value (50.0 μM chlorogenic acid) was 0.0741, the pIC50 (calculated by nonlinear regression from mean values) was 5.83 and the “inhibition of the activity of transglutaminase (FIG. 1)” value (relative inhibition activities versus concentration) was “inhibited in a chlorogenic acid concentration-dependent manner”.
